Biological target: T1, full length p110α/p85α (Homo sapiens, UniProt P42336)
T1 construct: Full-length human p110α was expressed either in a complex with full-length human p85α (for HTS, biochemistry and HDX-MS); 6xHis tag followed by TEV protease site (N); host or cells: Spodoptera frugiperda Sf9, baculovirus
Assay: HDX-MS
Type: binding
Description: Sample preparation: HDX-MS experiments were carried out as described previously. […] In total, three biological replicates, i.e. three separate protein preparations, each with exchange experiments carried out in triplicate were conducted. Data presented in the manuscript is a single biological replicate. Data acquisition and analysis were as follows: Each sample was thawed and injected onto an M-Class Acquity UPLC with HDX Technology (Waters) kept at 0.1°C. Proteins were digested in-line using an Enzymate Pepsin Column (Waters, #186007233) at 15°C for 2 min at 200 μl/min. Peptic peptides were then eluted onto an Acquity UPLC BEH C18 Column (Waters, #186002346) equilibrated in Pepsin-A buffer (0.1% formic acid) and separated using a 5-35% gradient of Pepsin-B buffer (0.1% formic acid, 99% acetonitrile) over 7 min at a flowrate of 40 μl/min. Data were collected on a Waters Cyclic IMS, with an electrospray ionisation source, from 50-2000 m/z. Data were collected in the HDMS^E mode. A single pass of the cyclic IMS was conducted. A “blank” sample of protein dilution buffer with quench was run between samples, and carry-over of peptides was routinely monitored. Five replicates were used to identify non-deuterated peptides. Criteria used to include peptides in the HDX-MS dataset were: minimum intensity 5000, minimum sequence length 5, maximum sequence length 25, a minimum of 3 fragment ions, a minimum of 0.1 products per amino acid, a minimum score of 6.62, a maximum MH+ Error of 10 ppm, identification in at least two datasets with a retention time RSD of less than 10%. Data was analysed using Protein Lynx Global Server (Waters) and DynamX (Waters). All peptides were manually inspected for EX1 kinetics and sufficient quality of the peptide envelope. Data quality, experiment design, and reporting of data meets the criteria as determined by the HDX-MS community. Uptake files were created using Baryonyx. Data are available via ProteomeXchange with identifier PXD037721.

T1 sequence (P42336 whole entry): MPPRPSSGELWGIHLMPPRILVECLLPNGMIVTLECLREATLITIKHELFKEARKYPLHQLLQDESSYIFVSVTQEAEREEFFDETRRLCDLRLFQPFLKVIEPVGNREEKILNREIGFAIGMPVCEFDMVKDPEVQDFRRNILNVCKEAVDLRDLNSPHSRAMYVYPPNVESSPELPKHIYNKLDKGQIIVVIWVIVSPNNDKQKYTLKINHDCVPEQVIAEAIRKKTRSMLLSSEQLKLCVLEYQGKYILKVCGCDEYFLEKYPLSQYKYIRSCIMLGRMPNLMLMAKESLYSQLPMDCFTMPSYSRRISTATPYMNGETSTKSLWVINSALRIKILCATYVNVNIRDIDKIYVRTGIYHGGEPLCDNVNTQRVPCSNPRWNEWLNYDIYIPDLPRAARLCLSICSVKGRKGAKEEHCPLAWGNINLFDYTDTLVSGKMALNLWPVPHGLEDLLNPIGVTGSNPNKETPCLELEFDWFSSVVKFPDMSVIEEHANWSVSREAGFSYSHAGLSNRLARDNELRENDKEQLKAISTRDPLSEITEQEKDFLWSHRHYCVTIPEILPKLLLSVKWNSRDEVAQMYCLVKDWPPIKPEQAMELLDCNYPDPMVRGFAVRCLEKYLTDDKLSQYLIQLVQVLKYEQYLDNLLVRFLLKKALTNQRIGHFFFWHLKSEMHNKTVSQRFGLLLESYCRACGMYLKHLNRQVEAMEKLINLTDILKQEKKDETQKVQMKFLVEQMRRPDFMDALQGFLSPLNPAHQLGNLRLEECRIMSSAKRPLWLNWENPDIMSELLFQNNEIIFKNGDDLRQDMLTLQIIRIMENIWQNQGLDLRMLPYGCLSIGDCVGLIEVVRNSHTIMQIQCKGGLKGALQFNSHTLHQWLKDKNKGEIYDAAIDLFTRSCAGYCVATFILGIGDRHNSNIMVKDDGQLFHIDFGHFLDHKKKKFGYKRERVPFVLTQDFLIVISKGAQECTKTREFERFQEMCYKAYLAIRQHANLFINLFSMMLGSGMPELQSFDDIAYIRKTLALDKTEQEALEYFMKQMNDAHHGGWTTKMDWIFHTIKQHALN
T1 sequence (P27986 whole entry partner): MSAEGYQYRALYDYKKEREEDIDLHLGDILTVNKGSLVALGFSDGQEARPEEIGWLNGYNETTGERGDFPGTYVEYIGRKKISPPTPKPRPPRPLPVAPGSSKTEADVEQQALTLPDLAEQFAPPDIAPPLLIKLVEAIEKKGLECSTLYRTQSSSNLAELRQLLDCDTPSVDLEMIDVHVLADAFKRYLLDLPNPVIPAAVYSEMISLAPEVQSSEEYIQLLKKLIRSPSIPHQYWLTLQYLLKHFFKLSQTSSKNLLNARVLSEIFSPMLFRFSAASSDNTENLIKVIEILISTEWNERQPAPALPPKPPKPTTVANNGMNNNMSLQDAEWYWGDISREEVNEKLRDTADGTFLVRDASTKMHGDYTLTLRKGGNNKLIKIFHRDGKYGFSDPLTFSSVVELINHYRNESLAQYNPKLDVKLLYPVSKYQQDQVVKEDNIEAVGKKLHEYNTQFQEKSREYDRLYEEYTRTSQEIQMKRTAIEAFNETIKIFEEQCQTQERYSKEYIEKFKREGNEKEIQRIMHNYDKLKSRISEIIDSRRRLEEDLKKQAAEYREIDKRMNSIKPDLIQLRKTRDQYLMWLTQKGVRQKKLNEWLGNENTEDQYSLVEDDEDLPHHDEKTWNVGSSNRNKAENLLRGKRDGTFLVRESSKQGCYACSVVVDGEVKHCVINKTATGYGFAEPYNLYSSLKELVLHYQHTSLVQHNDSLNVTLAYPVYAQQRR

CCN1CCN(c2ccc(Nc3cc(Nc4cccc5c4N(C(C)=O)CC5)ccn3)cc2)CC1 [Compound 1938]
HDX difference, percentage (PK3CA_HUMAN peptide 487-498, time column 5 of 5): -0.361% | HDX difference, percentage (PK3CA_HUMAN peptide 496-507, time column 1 of 5, deuterium exchange time 0.005): -1.7% | HDX difference, percentage (PK3CA_HUMAN peptide 496-507, time column 2 of 5, deuterium exchange time 0.05): 0.429% | HDX difference, percentage (PK3CA_HUMAN peptide 496-507, time column 3 of 5, deuterium exchange time 0.5): 0.5% | HDX difference, percentage (PK3CA_HUMAN peptide 496-507, time column 4 of 5, deuterium exchange time 5): 0.6% | HDX difference, percentage (PK3CA_HUMAN peptide 496-507, time column 5 of 5): 0.121% | HDX difference, percentage (PK3CA_HUMAN peptide 508-520, time column 1 of 5, deuterium exchange time 0.005): -0.644% | HDX difference, percentage (PK3CA_HUMAN peptide 508-520, time column 2 of 5, deuterium exchange time 0.05): 1.9% | HDX difference, percentage (PK3CA_HUMAN peptide 508-520, time column 3 of 5, deuterium exchange time 0.5): 1.4% | HDX difference, percentage (PK3CA_HUMAN peptide 508-520, time column 4 of 5, deuterium exchange time 5): 1.5% | HDX difference, percentage (PK3CA_HUMAN peptide 508-520, time column 5 of 5): 0.952% | HDX difference, percentage (PK3CA_HUMAN peptide 538-549, time column 1 of 5, deuterium exchange time 0.005): -0.8% | HDX difference, percentage (PK3CA_HUMAN peptide 538-549, time column 2 of 5, deuterium exchange time 0.05): 1.0% | HDX difference, percentage (PK3CA_HUMAN peptide 538-549, time column 3 of 5, deuterium exchange time 0.5): 0.441% | HDX difference, percentage (PK3CA_HUMAN peptide 538-549, time column 4 of 5, deuterium exchange time 5): -1.1% | HDX difference, percentage (PK3CA_HUMAN peptide 538-549, time column 5 of 5): -0.257% | HDX difference, percentage (PK3CA_HUMAN peptide 538-554, time column 1 of 5, deuterium exchange time 0.005): -1.3% | HDX difference, percentage (PK3CA_HUMAN peptide 538-554, time column 2 of 5, deuterium exchange time 0.05): 0.7% | HDX difference, percentage (PK3CA_HUMAN peptide 538-554, time column 3 of 5, deuterium exchange time 0.5): 0.47% | HDX difference, percentage (PK3CA_HUMAN peptide 538-554, time column 4 of 5, deuterium exchange time 5): -1.1% | HDX difference, percentage (PK3CA_HUMAN peptide 538-554, time column 5 of 5): -0.74% | HDX difference, percentage (PK3CA_HUMAN peptide 555-570, time column 1 of 5, deuterium exchange time 0.005): -1.2% | HDX difference, percentage (PK3CA_HUMAN peptide 555-570, time column 2 of 5, deuterium exchange time 0.05): 0.462% | HDX difference, percentage (PK3CA_HUMAN peptide 555-570, time column 3 of 5, deuterium exchange time 0.5): 0.2% | HDX difference, percentage (PK3CA_HUMAN peptide 555-570, time column 4 of 5, deuterium exchange time 5): -1.4% | HDX difference, percentage (PK3CA_HUMAN peptide 555-570, time column 5 of 5): -2.6% | HDX difference, percentage (PK3CA_HUMAN peptide 571-583, time column 1 of 5, deuterium exchange time 0.005): -0.6% | HDX difference, percentage (PK3CA_HUMAN peptide 571-583, time column 2 of 5, deuterium exchange time 0.05): 0.4% | HDX difference, percentage (PK3CA_HUMAN peptide 571-583, time column 3 of 5, deuterium exchange time 0.5): 0.167% | HDX difference, percentage (PK3CA_HUMAN peptide 571-583, time column 4 of 5, deuterium exchange time 5): -0.378% | HDX difference, percentage (PK3CA_HUMAN peptide 571-583, time column 5 of 5): -1.4% | HDX difference, percentage (PK3CA_HUMAN peptide 582-596, time column 1 of 5, deuterium exchange time 0.005): -1.6% | HDX difference, percentage (PK3CA_HUMAN peptide 582-596, time column 2 of 5, deuterium exchange time 0.05): 0.374% | HDX difference, percentage (PK3CA_HUMAN peptide 582-596, time column 3 of 5, deuterium exchange time 0.5): 0.262% | HDX difference, percentage (PK3CA_HUMAN peptide 582-596, time column 4 of 5, deuterium exchange time 5): 0.76% | HDX difference, percentage (PK3CA_HUMAN peptide 582-596, time column 5 of 5): 0.0749% | HDX difference, percentage (PK3CA_HUMAN peptide 597-606, time column 1 of 5, deuterium exchange time 0.005): 0.175% | HDX difference, percentage (PK3CA_HUMAN peptide 597-606, time column 2 of 5, deuterium exchange time 0.05): 1.6% | HDX difference, percentage (PK3CA_HUMAN peptide 597-606, time column 3 of 5, deuterium exchange time 0.5): 0.5% | HDX difference, percentage (PK3CA_HUMAN peptide 597-606, time column 4 of 5, deuterium exchange time 5): 1.4% | HDX difference, percentage (PK3CA_HUMAN peptide 597-606, time column 5 of 5): 1.3% | HDX difference, percentage (PK3CA_HUMAN peptide 610-637, time column 1 of 5, deuterium exchange time 0.005): -0.237% | HDX difference, percentage (PK3CA_HUMAN peptide 610-637, time column 2 of 5, deuterium exchange time 0.05): 0.13% | HDX difference, percentage (PK3CA_HUMAN peptide 610-637, time column 3 of 5, deuterium exchange time 0.5): 0.2% | HDX difference, percentage (PK3CA_HUMAN peptide 610-637, time column 4 of 5, deuterium exchange time 5): 0.257% | HDX difference, percentage (PK3CA_HUMAN peptide 610-637, time column 5 of 5): 0.128% | HDX difference, percentage (PK3CA_HUMAN peptide 626-638, time column 1 of 5, deuterium exchange time 0.005): -1.2% | HDX difference, percentage (PK3CA_HUMAN peptide 626-638, time column 2 of 5, deuterium exchange time 0.05): 1.0% | HDX difference, percentage (PK3CA_HUMAN peptide 626-638, time column 3 of 5, deuterium exchange time 0.5): 0.459% | HDX difference, percentage (PK3CA_HUMAN peptide 626-638, time column 4 of 5, deuterium exchange time 5): -0.333% | HDX difference, percentage (PK3CA_HUMAN peptide 626-638, time column 5 of 5): -0.147% | HDX difference, percentage (PK3CA_HUMAN peptide 647-658, time column 1 of 5, deuterium exchange time 0.005): -0.361% | HDX difference, percentage (PK3CA_HUMAN peptide 647-658, time column 2 of 5, deuterium exchange time 0.05): 0.6% | HDX difference, percentage (PK3CA_HUMAN peptide 647-658, time column 3 of 5, deuterium exchange time 0.5): 1.0% | HDX difference, percentage (PK3CA_HUMAN peptide 647-658, time column 4 of 5, deuterium exchange time 5): 1.2% | HDX difference, percentage (PK3CA_HUMAN peptide 647-658, time column 5 of 5): -0.0483% | HDX difference, percentage (PK3CA_HUMAN peptide 661-687, time column 1 of 5, deuterium exchange time 0.005): -1.5% | HDX difference, percentage (PK3CA_HUMAN peptide 661-687, time column 2 of 5, deuterium exchange time 0.05): 0.4% | HDX difference, percentage (PK3CA_HUMAN peptide 661-687, time column 3 of 5, deuterium exchange time 0.5): 0.466% | HDX difference, percentage (PK3CA_HUMAN peptide 661-687, time column 4 of 5, deuterium exchange time 5): 0.23% | HDX difference, percentage (PK3CA_HUMAN peptide 661-687, time column 5 of 5): -0.271% | HDX difference, percentage (PK3CA_HUMAN peptide 688-693, time column 1 of 5, deuterium exchange time 0.005): -3.1% | HDX difference, percentage (PK3CA_HUMAN peptide 688-693, time column 2 of 5, deuterium exchange time 0.05): 0.6% | HDX difference, percentage (PK3CA_HUMAN peptide 688-693, time column 3 of 5, deuterium exchange time 0.5): -0.142% | HDX difference, percentage (PK3CA_HUMAN peptide 688-693, time column 4 of 5, deuterium exchange time 5): -0.352% | HDX difference, percentage (PK3CA_HUMAN peptide 688-693, time column 5 of 5): -0.379% | HDX difference, percentage (PK3CA_HUMAN peptide 692-703, time column 1 of 5, deuterium exchange time 0.005): -0.563% | HDX difference, percentage (PK3CA_HUMAN peptide 692-703, time column 2 of 5, deuterium exchange time 0.05): 0.65% | HDX difference, percentage (PK3CA_HUMAN peptide 692-703, time column 3 of 5, deuterium exchange time 0.5): 0.8% | HDX difference, percentage (PK3CA_HUMAN peptide 692-703, time column 4 of 5, deuterium exchange time 5): 0.4% | HDX difference, percentage (PK3CA_HUMAN peptide 692-703, time column 5 of 5): 0.166% | HDX difference, percentage (PK3CA_HUMAN peptide 704-709, time column 1 of 5, deuterium exchange time 0.005): 0.4% | HDX difference, percentage (PK3CA_HUMAN peptide 704-709, time column 2 of 5, deuterium exchange time 0.05): 0.074% | HDX difference, percentage (PK3CA_HUMAN peptide 704-709, time column 3 of 5, deuterium exchange time 0.5): -1.2% | HDX difference, percentage (PK3CA_HUMAN peptide 704-709, time column 4 of 5, deuterium exchange time 5): -0.7% | HDX difference, percentage (PK3CA_HUMAN peptide 704-709, time column 5 of 5): 0.531%

From paper PMC7614683, “A small molecule PI3Kα activator for cardioprotection and neuroregeneration” (Nature, 2023)
